Measured values: patent US11383003B2, “Water soluble farnesol analogs and their use” (Kimberly-Clark Worldwide, Inc., priority 2012, dated 2022)

Experiments:
C. albicans SC5314 = experiment: Germ tube formation (GTF %) in vitro screening, GlcNAc-triggered differentiation assay; format: cell-based, Candida albicans
Description: Based on the results in FIG. 3, single cell suspensions of SC5314 was prepared as follows. Stock culture of C. albicans SC5314 was streaked onto YPD agar (YPDA) and incubated at 30° C. overnight. Single colonies were subcultured in YPD broth (YPDB) and incubated 30° C., 200 rpm overnight. Overnight culture in YPDB was subcultured in YPD broth again and incubated 30° C., 200 rpm 48 h. Cells were collected by centrifugation (4000 g 10 min) at 4° C., washed three times with sterile water, and then resuspended in sterile water a final concentration of 10^9 colony-forming unit/ml (cfu/ml). The suspension were stored at 4° C. at least 1 d, then subcultured into YPDB to a final concentration of 10^6 cfu/ml. After 48 h incubation, cell suspension was examined under the microscope for single cell percentage. When the single cell percentage exceeded 80%, cells were collected and washed three times with water, then resuspended in water to a final concentration of 10^9 cfu/ml, and stored at 4° C. for no more than a month.
Two approaches were taken to determine the percentage of cells with germ tubes formed (GTF %). One way was to count the total cells at the start of incubation, and count the ungerminated cells after incubation, then calculate the GTF % as (1—ungerminated cells/total cells at 0 h)*100. Another way was to store the samples at 15° C. for 20 h after incubation, then count the germinated cells and total cells after disaggregation, then calculated the GTF % as (germinated cells/total cells after storage)*100. […] Therefore, for practical purposes, the GTF % was determined by the first method, that is, GTF %=(1—ungerminated cells/total cells at 0 h)*100, for the in vitro screening discussed herein.
A screening medium, containing 11 mM imidazole buffer, 3 mM MgSO4, and 2.6 mM N-acetyl-D-glucosamine (GlcNAc) has been used to study the effect of farnesol analogs on the germ tube formation of C. albicans. Here, the germ tube formation of C. albicans in modified screening media was assessed with various concentrations of imidazole buffer (10 mM, 30 mM and 50 mM) and MgSO4 (0.5 mM, 1.5 mM and 3 mM). […] It took 2 h to 3 h for the GTF % to reach above 80%. For practical purposes, the screening medium, containing 11 mM imidazole buffer, 0.5 mM MgSO4, and 2.6 mM N-acetyl-D-glucosamine (GlcNAc) was adopted for in vitro screening the quorum sensing inhibitory effect of farnesol compounds.
The in vitro screening assay was based on the N-acetylglucosamine (GlcNAc)-triggered differentiation assay (Hornby et al., “Quorum sensing in the dimorphic fungus Candida albicans is mediated by farnesol;” Applied and Environmental Microbiology 67:2982-2992; 2001), which included 0.56 ml of 0.1 M imidazole buffer (pH 6.5), 0.15 ml of 0.1 M MgSO4, 0.13 ml of 0.1 M GlcNAc, and 4.16 ml of sterilized water. Bioassays of quorum sensing candidates were conducted by the addition of the chemical, as a solution in 100% methanol, to the bioassay media; the final concentration of methanol was no greater than 1%.

[1] = test system: C. elegans glp4; sek1 infected with C. albicans SC5314; experiment: Death rate of C. elegans glp4; sek1 infected with C. albicans SC5314, 96 well plates; format: in vivo, Caenorhabditis elegans; settings: for % change in the death rate compared to the control: 25° C.
Description: Caenorhabditis elegans glp4; sek1 was used as the model for […]. Breger et al. (Breger, J.; Fuchs, B. B.; Aperis, G.; Moy, T. I., Ausubel, F. M., Mylonakis, E.; “Antifungal chemical compounds identified using a C. elegans pathogenicity assay.” PLoS Pathogens 3: 168-178; 2007) reported that the glp-4 mutation rendered the strain incapable of producing progeny at 25° C., and the sek-1 mutation enhanced the sensitivity of the strain to various pathogens, thereby decreasing the time for screening assays. It was observed that no progenies was produced by the Caenorhabditis elegans glp4; sek1 strain after 3 d incubation at 25° C.
The synchronization of C. elegans was achieved by collecting the eggs and arresting the larvae at L1 stage. The commonly used bleach treatment was able to release the eggs from the adult worms. However, it was observed that the released eggs were not always able to hatch after treated with sodium hypochlorite (0.2, 0.3, 0.4, 0.5, 0.7 or 1%) for 3-5 min. A modified egg laying method was developed to synchronize worms to L1 stage. In brief, stock cultures of C. elegans glp4; sek1, maintained on Nematode Growth Media plates (NGM plates), were subcultured onto NGM plates with OP 50 and incubated at 15° C. for 6-9 days. Then a chunk (1 cm^2) of agar with gravid adults was subcultured again onto NGM plates with OP50 and incubated at 15° C. After incubation of 3-7 days, the worms were gently washed off with 3 ml of M 9 buffer on the rotating platform (100 rpm). The plate was tilted on its lid to allow the liquid and worms drain to one side of the plate. The liquid and worms were aspirated off. The plate was washed again with M9 buffer three more times to remove OP50 as much as possible. After washing, the plate was incubated at 25° C. overnight to let the eggs hatch overnight. Since there was no OP50, the larvae were arrested at the L1 stage. The live C. elegans glp4; sek1 was quite curvy; whereas the dead C. elegans glp4; sek1 tended to be straight, and in most cases the dead worms with the hyphae of C. albicans pieced through the body. The curvy shape and movement after shaking were used as the criteria for live.
The In vitro screening assay, based on the method of Tampakakis et al (Tampakakis, E.; Okoli, I.; Mylonakis, E.; “A C. elegans-based, whole animal, in vivo screen for the identification of antifungal compounds.” Nature Protocols 3:1925-1931; 2008), is described as follows:
L1 worms, which were prepared by the modified egg-laying method, were collected by centrifugation at 675 g for 30 s at room temperature, and the supernatant was removed. Worms were resuspended in M 9 buffer and inoculated on NGM agar plates with OP50, ˜1000 worms per plate. After 2-3 days incubation at 25° C., the worms were washed off with M 9 buffer for the […] assay.
The control were worms fed on OP50.

C. elegans glp4; sek1 = experiment: Toxicity: death rate of C. elegans glp4; sek1 fed on E. coli OP50; settings: for Death rate (%): 2 mM, worms fed on E. coli OP50, 25° C.; for toxicity to C. elegans fed on E. coli OP50 (in words): in vivo
Description: The toxicity of the selected compounds/products were tested using the C. elegans glp4; sek1 fed on E. coli OP50 (Table 5).
Stock cultures of C. albicans SC 5314 was subcultured into 3 ml of YPD broth and incubated at 30° C. Then the overnight culture in broth was spread onto YPD agar, and incubated at 30° C. The 24 h old lawn of SC5314 was used to feed worms for 2 h at 25° C. The control were worms fed on OP50.
The worms were washed off the YPD plates and washed twice with M9 buffer. The worms were resuspended in screening media, M9 buffer with 0.3% Tween 80. The worm suspension (50 μl) was dispensed into the wells of 96-well plates, 20-30 worms/well. Aliquots (50 μl) of compounds in screening media were added to wells, 5 wells each compound. The 96 well plates were incubated at 25° C. for up to 5 days. Live and dead worms were counted during incubation, and the death rates of worms were calculated.

[2] = 0.4 mM to 3 mM (the tested four concentrations)
[3] = 2.0 mM, 4 days, two replicates (* three)
[4] = 2.0 mM, 5 days, two replicates (* three)

SMILES | GTF % (mean ± SEM, n = 2) (C. albicans SC5314; 100 μM, * one replicate) | GTF % (mean ± SEM, n = 2) (C. albicans SC5314; 200 μM) [%] | effect on death rate of infected C. elegans (in words) [1, 2] | % change in the death rate compared to the control ([1]; 0.4 mM, 4 days, two replicates) [%] | % change in the death rate compared to the control ([1]; 0.4 mM, 5 days, two replicates) [%] | % change in the death rate compared to the control ([1]; 1.0 mM, 4 days, two replicates) [%] | % change in the death rate compared to the control ([1]; 1.0 mM, 5 days, two replicates) [%] | % change in the death rate compared to the control [1, 3] [%] | % change in the death rate compared to the control [1, 4] [%] | % change in the death rate compared to the control ([1]; 3.0 mM, 4 days, two replicates) [%] | % change in the death rate compared to the control ([1]; 3.0 mM, 5 days, two replicates) [%] | Death rate (%) (C. elegans glp4; sek1) | toxicity to C. elegans fed on E. coli OP50 (in words) (C. elegans glp4; sek1) | effect on death rate of infected C. elegans (in words) ([1]; key finding, no concentration stated)
O=C(O)Cc1ccc(O)cc1 [4-hydroxy phenyl acetic acid] | 93.1* % | 86.2 ± 1.8 |  |  |  |  |  |  |  |  |  |  |  | 
CC(=O)OCC=C(C)CCC=C(C)CCC=C(C)C [farnesyl acetate, reference compound] | 51.9 ± 2.1% | 36.8 ± 0.8 | increased the death rate of the worm significantly | 10 ± 6 | 4 ± 3 | 27 ± 7 | 15 ± 7 | 21 ± 5 | 9 ± 2 | 24 ± 9 | 7 ± 10 | 12 | toxic to the worm | 
O=C(O)Cc1ccccc1O [2-hydroxy phenyl acetic acid] | 90.3* % | 71.3 ± 2.5 |  |  |  |  |  |  |  |  |  |  |  | 
C=CC(C)(O)CC/C=C(\C)CCC=C(C)C (stereo not drawn) [trans-nerolidol, reference compound] | 92.4* % | 51.6 ± 1.8 | increased the death rate of the worm significantly | 11 ± 4 | 4 ± 5 | 3 ± 7 | −8 ± 5 | 25 ± 10 | 10 ± 2 | 7 ± 0 | 9 ± 9 | 23 | toxic to the worm | 
CC(C)=CCC/C(C)=C/CC/C(C)=C/COC(=O)CCC(=O)OCCCO [#3 synthesized analog] | 66.9 ± 1.5% | 32.9 ± 1.0 | did not have significant effect on the death of the worms | −6 ± 7 | 10 ± 3 | 1 ± 6 | 3 ± 8 | −12 ± 9 | 9 ± 10 | −2 ± 2 | 7 ± 1 | 6 |  | 
COc1cc(CCN)ccc1O [3-Methoxy-4-hydroxy-phenylethyl amine] | 95.7* % | 86.4 ± 3.3 |  |  |  |  |  |  |  |  |  |  |  | 
CC(C)=CCC/C(C)=C/CC/C(C)=C/COCCCO [#6 synthesized analog] | 75.1 ± 0.5% | 51.1 ± 3.2 |  |  |  |  |  |  |  |  |  |  |  | 
OCCc1ccc(O)c(O)c1 [hydroxytyrosol] | 78.0* % | 84.9 ± 0.1 |  |  |  |  |  |  |  |  |  |  |  | 
CC(C)=CCC/C(C)=C/CC/C(C)=C/CO[C@@H]1C(O)C(O)OC(CO)C1O (stereo partly drawn) [#8 synthesized analog] | 76.6 ± 0.3% | 66.3 ± 0.6 |  |  |  |  |  |  |  |  |  |  |  | 
CC(C)=CCC/C(C)=C/CC/C(C)=C/COCCO [#7 synthesized analog] | 72.6 ± 1.7% | 58.8 ± 2.1 |  |  |  |  |  |  |  |  |  |  |  | 
OC=Cc1ccccc1 [β-phenylethenol] | 91.7* % | 84.5 ± 0.3 |  |  |  |  |  |  |  |  |  |  |  | 
CC(C)=CCC/C(C)=C/CC/C(C)=C/COCCCCO [#5 synthesized analog] | 73.8 ± 4.8% | 53.6 ± 3.0 | did not have significant effect on the death of the worms | −3 ± 6 | −6 ± 3 | 2 ± 3 | 9 ± 1 | −8 ± 1 | 2 ± 2 | −4 ± 4 | 4 ± 1 | 4 |  | 
CC(C)=CCC/C(C)=C/CC/C(C)=C/COC(=O)CCC(=O)OCCCCO [#2 synthesized analog] | 71.2 ± 2.9% | 33.9 ± 0.6 | reduced the death rate significantly | −36 ± 4 | −38 ± 2 | −28 ± 5 | −29 ± 10 | −39 ± 11 | −39 ± 11 | −40 ± 0 | −40 ± 4 | 4 ± 0.6 |  | significantly reduced the death rate
OC[C@H]1O[C@@H](OCCc2ccc(O)cc2)[C@H](O)[C@@H](O)[C@@H]1O [salidroside] | 93.2* % | 78.0 ± 5.9 |  |  |  |  |  |  |  |  |  |  |  | 
